Reference: paper PMC4979471 (Cell Death Discovery, 2015)
Read-outs that look alike come from different tables or passages of the source.

What was measured:
Assay in all cases: Kinase selectivity, P33-radiolabeled assay
Type in all cases: biochemical
[1] = biological target: T1, AKT1 (Homo sapiens, UniProt P31749); conditions: 10 μM ATP
T1 construct: purchased Reaction Biology Corp
Method in brief: (§1)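 Each enzyme was exposed to 10 μM compound, with duplicate measurements, in reactions containing 10 μM ATP. Numbers are remaining activity as a percent of the vehicle (DMSO) signal.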

[2] = biological target: T2, CAMK2b (Homo sapiens, UniProt Q13554); conditions: 10 μM ATP
T2 construct: purchased Reaction Biology Corp
T2 sequence (Q13554 whole entry): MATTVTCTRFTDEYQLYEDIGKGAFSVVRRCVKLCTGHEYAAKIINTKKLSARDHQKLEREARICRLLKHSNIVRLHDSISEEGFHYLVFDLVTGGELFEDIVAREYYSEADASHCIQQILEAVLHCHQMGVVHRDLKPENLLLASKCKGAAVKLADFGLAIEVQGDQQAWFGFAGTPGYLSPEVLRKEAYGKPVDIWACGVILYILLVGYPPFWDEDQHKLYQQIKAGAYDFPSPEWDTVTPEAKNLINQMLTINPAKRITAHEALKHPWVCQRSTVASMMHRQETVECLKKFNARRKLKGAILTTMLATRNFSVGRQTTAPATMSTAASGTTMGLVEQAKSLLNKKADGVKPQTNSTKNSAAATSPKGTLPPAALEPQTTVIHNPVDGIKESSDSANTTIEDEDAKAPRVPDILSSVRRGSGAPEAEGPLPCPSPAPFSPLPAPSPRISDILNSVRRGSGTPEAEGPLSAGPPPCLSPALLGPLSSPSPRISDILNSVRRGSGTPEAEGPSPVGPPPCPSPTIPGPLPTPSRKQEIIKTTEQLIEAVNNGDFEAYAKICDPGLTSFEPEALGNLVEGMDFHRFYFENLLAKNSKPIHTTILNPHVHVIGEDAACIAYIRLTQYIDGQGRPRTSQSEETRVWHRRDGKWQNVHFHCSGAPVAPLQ
Method in brief: as §1

[3] = biological target: T3, DMPK (Homo sapiens, UniProt Q09013); conditions: 10 μM ATP
T3 construct: purchased Reaction Biology Corp
T3 sequence (Q09013 1-629): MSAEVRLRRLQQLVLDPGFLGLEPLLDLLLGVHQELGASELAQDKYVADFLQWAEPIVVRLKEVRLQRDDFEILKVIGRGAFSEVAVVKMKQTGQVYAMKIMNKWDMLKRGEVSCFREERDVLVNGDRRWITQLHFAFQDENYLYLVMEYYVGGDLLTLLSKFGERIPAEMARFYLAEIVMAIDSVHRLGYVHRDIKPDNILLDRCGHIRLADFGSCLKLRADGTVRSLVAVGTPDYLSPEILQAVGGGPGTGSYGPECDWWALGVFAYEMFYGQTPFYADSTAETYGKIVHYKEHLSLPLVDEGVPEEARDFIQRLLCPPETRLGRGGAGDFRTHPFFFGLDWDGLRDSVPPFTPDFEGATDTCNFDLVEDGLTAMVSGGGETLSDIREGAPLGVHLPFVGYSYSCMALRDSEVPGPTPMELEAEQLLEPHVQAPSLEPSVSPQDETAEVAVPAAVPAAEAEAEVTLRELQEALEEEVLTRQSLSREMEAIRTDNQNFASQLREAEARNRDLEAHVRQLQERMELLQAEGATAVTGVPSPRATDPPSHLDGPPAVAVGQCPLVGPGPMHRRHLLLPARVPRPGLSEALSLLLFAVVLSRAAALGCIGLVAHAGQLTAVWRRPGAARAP
Method in brief: as §1

[4] = biological target: T4, EPHA4 (Homo sapiens, UniProt P54764); conditions: 10 μM ATP
T4 construct: purchased Reaction Biology Corp
T4 sequence (P54764 20-986): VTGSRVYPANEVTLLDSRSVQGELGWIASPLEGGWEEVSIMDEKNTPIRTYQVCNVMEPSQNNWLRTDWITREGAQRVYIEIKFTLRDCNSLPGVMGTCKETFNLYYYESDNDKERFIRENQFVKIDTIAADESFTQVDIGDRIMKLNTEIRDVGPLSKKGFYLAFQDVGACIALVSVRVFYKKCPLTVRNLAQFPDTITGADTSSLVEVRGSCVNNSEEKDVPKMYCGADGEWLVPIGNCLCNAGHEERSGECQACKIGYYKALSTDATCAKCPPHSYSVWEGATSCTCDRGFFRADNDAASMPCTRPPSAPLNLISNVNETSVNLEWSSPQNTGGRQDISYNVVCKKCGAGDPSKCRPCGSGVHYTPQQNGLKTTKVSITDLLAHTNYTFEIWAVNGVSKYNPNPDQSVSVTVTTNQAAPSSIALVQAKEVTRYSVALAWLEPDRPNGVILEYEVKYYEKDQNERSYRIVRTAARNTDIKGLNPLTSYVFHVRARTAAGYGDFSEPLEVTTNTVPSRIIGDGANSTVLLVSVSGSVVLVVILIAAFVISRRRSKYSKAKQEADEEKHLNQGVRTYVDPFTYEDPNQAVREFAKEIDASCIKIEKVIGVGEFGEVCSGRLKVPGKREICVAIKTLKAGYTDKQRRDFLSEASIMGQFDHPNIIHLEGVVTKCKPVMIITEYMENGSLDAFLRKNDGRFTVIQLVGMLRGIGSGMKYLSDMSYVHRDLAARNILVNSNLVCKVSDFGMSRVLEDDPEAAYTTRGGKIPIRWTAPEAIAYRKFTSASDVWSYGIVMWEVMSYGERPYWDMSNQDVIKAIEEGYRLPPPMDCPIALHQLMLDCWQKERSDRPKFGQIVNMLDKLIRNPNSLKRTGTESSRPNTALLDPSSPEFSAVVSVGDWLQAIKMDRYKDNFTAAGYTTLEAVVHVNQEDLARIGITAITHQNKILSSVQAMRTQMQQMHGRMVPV
Method in brief: as §1

[5] = biological target: T5, IGF1R (Homo sapiens, UniProt P08069)
T5 construct: purchased Reaction Biology Corp
T5 sequence (P08069 31-1367): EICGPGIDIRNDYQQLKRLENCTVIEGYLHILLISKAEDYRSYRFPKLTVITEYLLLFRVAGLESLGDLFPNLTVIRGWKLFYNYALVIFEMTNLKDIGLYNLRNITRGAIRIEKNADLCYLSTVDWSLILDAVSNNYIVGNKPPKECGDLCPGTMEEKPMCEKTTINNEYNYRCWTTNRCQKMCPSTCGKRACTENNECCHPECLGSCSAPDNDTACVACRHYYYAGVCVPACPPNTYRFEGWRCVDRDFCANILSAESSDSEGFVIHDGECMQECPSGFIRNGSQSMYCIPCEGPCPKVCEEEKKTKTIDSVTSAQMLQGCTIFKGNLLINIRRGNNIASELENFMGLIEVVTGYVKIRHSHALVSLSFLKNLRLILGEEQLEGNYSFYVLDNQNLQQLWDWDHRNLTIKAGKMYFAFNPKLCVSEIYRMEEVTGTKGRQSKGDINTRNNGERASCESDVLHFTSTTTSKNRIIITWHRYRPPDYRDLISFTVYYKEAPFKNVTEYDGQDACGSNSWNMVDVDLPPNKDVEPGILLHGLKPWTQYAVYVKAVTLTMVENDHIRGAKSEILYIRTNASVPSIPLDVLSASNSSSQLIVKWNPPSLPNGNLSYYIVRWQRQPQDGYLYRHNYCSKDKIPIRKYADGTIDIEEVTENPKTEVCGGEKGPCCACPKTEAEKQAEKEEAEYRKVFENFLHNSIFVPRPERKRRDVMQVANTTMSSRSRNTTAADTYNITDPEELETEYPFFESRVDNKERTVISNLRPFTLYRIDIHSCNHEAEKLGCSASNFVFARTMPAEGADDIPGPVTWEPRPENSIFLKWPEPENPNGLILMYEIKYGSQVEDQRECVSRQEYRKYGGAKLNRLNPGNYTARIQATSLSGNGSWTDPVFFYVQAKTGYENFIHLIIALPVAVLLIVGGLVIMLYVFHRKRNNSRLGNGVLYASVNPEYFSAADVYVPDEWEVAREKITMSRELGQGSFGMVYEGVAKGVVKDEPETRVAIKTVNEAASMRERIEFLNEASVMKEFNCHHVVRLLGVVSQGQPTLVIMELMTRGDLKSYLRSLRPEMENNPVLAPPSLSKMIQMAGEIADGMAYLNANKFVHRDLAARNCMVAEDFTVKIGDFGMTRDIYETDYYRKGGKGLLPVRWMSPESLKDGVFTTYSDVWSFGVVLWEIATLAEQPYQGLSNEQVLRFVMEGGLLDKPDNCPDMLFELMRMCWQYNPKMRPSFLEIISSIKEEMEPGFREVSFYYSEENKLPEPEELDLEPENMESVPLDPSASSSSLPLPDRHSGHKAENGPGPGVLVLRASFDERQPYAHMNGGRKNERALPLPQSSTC
Method in brief: as §1

[6] = biological target: T6, MINK/MINK1 (Homo sapiens, UniProt Q8N4C8); conditions: 10 μM ATP
T6 construct: purchased Reaction Biology Corp
Method in brief: as §1

[7] = biological target: T7, PLK4/SAK (Homo sapiens, UniProt O00444); conditions: 10 μM ATP
T7 construct: purchased Reaction Biology Corp
T7 sequence (O00444 1-970): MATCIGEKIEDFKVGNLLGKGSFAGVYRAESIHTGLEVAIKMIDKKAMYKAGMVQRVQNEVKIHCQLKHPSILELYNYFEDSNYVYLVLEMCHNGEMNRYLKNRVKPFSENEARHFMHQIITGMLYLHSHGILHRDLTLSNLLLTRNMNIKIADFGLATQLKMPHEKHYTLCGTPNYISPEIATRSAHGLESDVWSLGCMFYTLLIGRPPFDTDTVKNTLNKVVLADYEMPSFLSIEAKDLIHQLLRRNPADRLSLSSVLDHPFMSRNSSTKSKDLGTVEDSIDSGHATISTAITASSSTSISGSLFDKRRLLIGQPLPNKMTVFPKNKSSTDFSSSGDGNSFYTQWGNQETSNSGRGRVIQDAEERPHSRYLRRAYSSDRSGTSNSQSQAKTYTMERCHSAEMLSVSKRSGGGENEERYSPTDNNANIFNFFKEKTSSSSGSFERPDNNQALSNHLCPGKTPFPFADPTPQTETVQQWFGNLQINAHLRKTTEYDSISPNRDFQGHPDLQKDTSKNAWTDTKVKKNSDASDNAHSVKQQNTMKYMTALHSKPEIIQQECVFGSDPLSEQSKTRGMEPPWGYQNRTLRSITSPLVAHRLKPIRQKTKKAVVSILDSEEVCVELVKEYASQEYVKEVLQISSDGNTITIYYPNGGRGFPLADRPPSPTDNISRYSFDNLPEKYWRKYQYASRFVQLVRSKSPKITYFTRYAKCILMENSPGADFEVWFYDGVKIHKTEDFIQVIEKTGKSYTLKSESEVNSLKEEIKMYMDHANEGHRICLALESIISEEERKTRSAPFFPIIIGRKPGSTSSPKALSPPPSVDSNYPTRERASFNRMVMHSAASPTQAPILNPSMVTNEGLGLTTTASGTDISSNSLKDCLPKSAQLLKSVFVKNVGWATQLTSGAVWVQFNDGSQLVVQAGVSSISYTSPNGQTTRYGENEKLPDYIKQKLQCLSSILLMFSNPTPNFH
Method in brief: as §1

[8] = biological target: T8, SGK3/SGKL (Homo sapiens, UniProt Q96BR1); conditions: 10 μM ATP
T8 construct: purchased Reaction Biology Corp
T8 sequence (Q96BR1 1-496): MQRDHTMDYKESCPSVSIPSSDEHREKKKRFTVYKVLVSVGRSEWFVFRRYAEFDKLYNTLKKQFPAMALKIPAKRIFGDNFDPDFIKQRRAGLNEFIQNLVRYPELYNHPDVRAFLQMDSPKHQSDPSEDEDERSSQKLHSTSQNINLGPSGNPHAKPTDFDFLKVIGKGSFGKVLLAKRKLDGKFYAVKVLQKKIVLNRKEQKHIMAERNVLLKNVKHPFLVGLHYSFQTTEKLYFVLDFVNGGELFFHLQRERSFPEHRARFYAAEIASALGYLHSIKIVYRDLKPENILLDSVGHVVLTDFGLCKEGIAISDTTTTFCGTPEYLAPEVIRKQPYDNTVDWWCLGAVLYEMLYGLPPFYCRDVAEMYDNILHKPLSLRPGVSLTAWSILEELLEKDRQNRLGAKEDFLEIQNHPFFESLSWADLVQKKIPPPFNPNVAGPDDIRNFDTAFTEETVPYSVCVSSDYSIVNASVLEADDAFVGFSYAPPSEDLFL
Method in brief: as §1

[9] = biological target: T9, ZAK/MLTK (Homo sapiens, UniProt Q9NYL2); conditions: 10 μM ATP
T9 construct: purchased Reaction Biology Corp
T9 sequence (Q9NYL2 whole entry): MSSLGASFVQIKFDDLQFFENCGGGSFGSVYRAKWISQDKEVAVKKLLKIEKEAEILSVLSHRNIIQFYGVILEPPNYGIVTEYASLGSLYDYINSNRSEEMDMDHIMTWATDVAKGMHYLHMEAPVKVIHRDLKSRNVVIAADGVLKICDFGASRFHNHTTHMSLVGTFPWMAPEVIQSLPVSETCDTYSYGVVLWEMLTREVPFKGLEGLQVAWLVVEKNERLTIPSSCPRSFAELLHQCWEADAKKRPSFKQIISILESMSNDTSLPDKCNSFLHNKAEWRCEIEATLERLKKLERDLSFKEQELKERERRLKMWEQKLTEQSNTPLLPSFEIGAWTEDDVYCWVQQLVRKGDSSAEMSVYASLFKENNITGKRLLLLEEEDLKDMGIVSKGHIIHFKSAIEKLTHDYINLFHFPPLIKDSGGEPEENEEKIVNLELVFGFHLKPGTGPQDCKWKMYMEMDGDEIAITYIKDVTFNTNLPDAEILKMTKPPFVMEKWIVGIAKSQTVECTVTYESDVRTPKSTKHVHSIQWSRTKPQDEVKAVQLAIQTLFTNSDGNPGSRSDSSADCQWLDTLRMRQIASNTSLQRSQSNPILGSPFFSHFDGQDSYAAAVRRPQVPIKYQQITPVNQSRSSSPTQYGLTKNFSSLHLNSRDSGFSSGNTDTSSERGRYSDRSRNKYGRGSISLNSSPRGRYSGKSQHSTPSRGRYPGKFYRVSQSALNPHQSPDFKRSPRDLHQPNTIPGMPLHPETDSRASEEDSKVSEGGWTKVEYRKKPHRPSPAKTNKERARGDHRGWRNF
Method in brief: as §1

[10] = read-out: % Enzyme Activity (relative to DMSO controls) AVG
[11] = read-out: % Enzyme Activity (relative to DMSO controls) Data 1
[12] = read-out: % Enzyme Activity (relative to DMSO controls) Data 2

T1 sequence (P31749 whole entry): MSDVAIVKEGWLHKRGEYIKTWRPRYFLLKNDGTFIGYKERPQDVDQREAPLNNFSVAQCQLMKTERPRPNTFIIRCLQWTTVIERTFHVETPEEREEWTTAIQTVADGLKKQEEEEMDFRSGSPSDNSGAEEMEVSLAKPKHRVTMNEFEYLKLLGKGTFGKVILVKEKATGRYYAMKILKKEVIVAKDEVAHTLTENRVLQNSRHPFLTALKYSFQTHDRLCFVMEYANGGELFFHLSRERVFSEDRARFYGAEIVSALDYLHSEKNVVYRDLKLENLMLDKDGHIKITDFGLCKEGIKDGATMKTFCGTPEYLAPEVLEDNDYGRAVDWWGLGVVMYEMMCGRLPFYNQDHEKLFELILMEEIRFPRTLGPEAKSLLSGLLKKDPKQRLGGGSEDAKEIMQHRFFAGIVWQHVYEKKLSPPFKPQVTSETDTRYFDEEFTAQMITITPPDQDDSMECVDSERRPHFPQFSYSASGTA

CC(C)(C)C(=O)N1N=CC[C@H]1c1ccccc1 [GSK′963]
remaining activity at 10 µM [1, 10]: 100%
remaining activity at 10 µM [1, 11]: 102%
remaining activity at 10 µM [1, 12]: 98.8%
remaining activity at 10 µM [2, 10]: 95.1%
remaining activity at 10 µM [2, 11]: 94.1%
remaining activity at 10 µM [2, 12]: 96.1%
remaining activity at 10 µM [3, 10]: 99.2%
remaining activity at 10 µM [3, 11]: 97.5%
remaining activity at 10 µM [3, 12]: 101%
remaining activity at 10 µM [4, 10]: 99.2%
remaining activity at 10 µM [4, 11]: 99.2%
remaining activity at 10 µM [4, 12]: 99.2%
remaining activity at 10 µM ([5]; 10 uM, 10 μM ATP, read-out: % Enzyme Activity (relative to DMSO controls) AVG): 103%
remaining activity at 10 µM ([5]; 10 uM, 10 μM ATP, read-out: % Enzyme Activity (relative to DMSO controls) Data 2): 104%
remaining activity at 10 µM [5, 11]: 101%
remaining activity at 10 µM [6, 10]: 90.2%
remaining activity at 10 µM [6, 11]: 89.8%
remaining activity at 10 µM [6, 12]: 90.6%
remaining activity at 10 µM [7, 10]: 113%
remaining activity at 10 µM [7, 11]: 114%
remaining activity at 10 µM [7, 12]: 112%
remaining activity at 10 µM [8, 10]: 107%
remaining activity at 10 µM [8, 11]: 104%
remaining activity at 10 µM [8, 12]: 110%
remaining activity at 10 µM [9, 10]: 105%
remaining activity at 10 µM [9, 11]: 106%
remaining activity at 10 µM [9, 12]: 104%
